Source: patent US11084800B2 (Achillion Pharmaceuticals, Inc., priority 2017, dated 2021)

target: Human Factor D (Homo sapiens (Human), UniProt P00746); test: Human Factor D Assay; type: biochemical; conditions: Table 6; Factor D 80 nM, substrate Z-L-Lys-SBz; read-out: IC50
How it was run: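 Thioester substrate Z-L-Lys-SBz (100 μM) with Ellman's reagent DTNB (100 μM) reports activity of 80 nM human serum-derived enzyme, kinetically at 405 nm over 30 min. Compound preincubated 5 min, room temperature, pH 7.5 Tris/1 M NaCl; IC50 by nonlinear fit of rates.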

Sequence of Human Factor D (P00746 26-253): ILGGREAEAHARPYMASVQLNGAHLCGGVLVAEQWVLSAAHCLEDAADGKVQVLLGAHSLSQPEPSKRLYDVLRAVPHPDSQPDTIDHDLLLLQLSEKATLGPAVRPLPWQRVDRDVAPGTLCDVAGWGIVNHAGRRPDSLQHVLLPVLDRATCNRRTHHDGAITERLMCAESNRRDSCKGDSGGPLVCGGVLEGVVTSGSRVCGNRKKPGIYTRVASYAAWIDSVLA

SMILES	IC50 [nM]
CC(=O)c1nn(CC(=O)N2[C@H](C(=O)Nc3nc(Br)ccc3C)C[C@@]3(CN(C)C)C[C@@H]23)c2ccc(-c3cnc(C)nc3)c(F)c12 [Compound 155, (1R,3S,5R)-2-(2-(3-Acetyl-4-fluoro-5-(2-methylpyrimidin-5-yl)-1H-indazol-1-yl)acetyl)-N-(6-bromo-3-methylpyridin-2-yl)-5-((dimethylamino)methyl)-2-azabicyclo[3.1.0]hexane-3-carboxamide]	< 1000
CC(=O)c1nn(CC(=O)N2[C@H]3C[C@@]3(CN(C)C)C[C@H]2C(=O)Nc2nc(Br)ccc2C)c2ccc(-c3cnc(C)nc3)c(F)c12 [Compound 156, (1S,3S,5S)-2-(2-(3-Acetyl-4-fluoro-5-(2-methylpyrimidin-5-yl)-1H-indazol-1-yl)acetyl)-N-(6-bromo-3-methylpyridin-2-yl)-5-((dimethylamino)methyl)-2-azabicyclo[3.1.0]hexane-3-carboxamide]	> 10000
CC(=O)c1nn(CC(=O)N2[C@H](C(=O)Nc3nc(Br)ccc3C)C[C@@]3(COCCN(C)C)C[C@@H]23)c2ccc(-c3cnc(C)nc3)cc12 [Compound 157]	< 1000
CC(=O)c1nn(CC(=O)N2C[C@H]3C[C@H]3[C@H]2C(=O)Nc2nc(Br)c(F)cc2C)c2cnc(-c3cnc(C)nc3)cc12 [Compound 172, (1R,2S,5S)-3-(2-(3-Acetyl-5-(2-methylpyrimidin-5-yl)-1H-pyrazolo[3,4-c]pyridin-1-yl)acetyl)-N-(6-bromo-5-fluoro-3-methylpyridin-2-yl)-3-azabicyclo[3.1.0]hexane-2-carboxamide]	< 1000
CC(=O)c1nn(CC(=O)N2[C@H](C(=O)Nc3nc(Br)ccc3C)C[C@@]3(C(N)=O)C[C@@H]23)c2c(C)cc(-c3cnc(C)nc3)cc12 [Compound 173, (1R,3S,5S)-2-(2-(3-acetyl-7-methyl-5-(2-methylpyrimidin-5-yl)-1H-indazol-1-yl)acetyl)-N3-(6-bromo-3-methylpyridin-2-yl)-2-azabicyclo[3 .1.0]hexane-3,5-dicarboxamide]	> 10000
CC(=O)c1nn(CC(=O)N2[C@H](C(=O)Nc3nc(Br)ccc3C)C[C@@]3(C#N)C[C@@H]23)c2c(C)cc(-c3cnc(C)nc3)cc12 [Compound 174, (1R,3S,5S)-2-(2-(3-acetyl-7-methyl-5-(2-methylpyrimidin-5-yl)-1H-indazol-1-yl)acetyl)-N-(6-bromo-3-methylpyridin-2-yl)-5-cyano-2-azabicyclo[3.1.0]hexane-3-carboxamide]	> 10000
CC(=O)c1nn(CC(=O)N2C[C@@H](C(F)(F)F)C[C@H]2C(=O)Nc2nc(Br)ccc2C)c2c(C)cc(-c3cnc(C)nc3)cc12 [Compound 175]	< 1000
CC(=O)c1nn(CC(=O)N2[C@H](C(=O)Nc3nc(Br)ccc3C)C[C@@]3(CN(CCF)CCF)C[C@@H]23)c2c(C)cc(-c3cnc(C)nc3)cc12 [Compound 176]	< 1000
CC(=O)c1nn(CC(=O)N2[C@H](C(=O)Nc3nc(Br)ccc3CN3CC(F)(F)C3)C[C@@]3(C)C[C@@H]23)c2ccc(-c3cnc(C)nc3)cc12 [Compound 177, (1R,3S,5R)-2-(2-(3-Acetyl-5-(2-methylpyrimidin-5-yl)-1H-indazol-1-yl)acetyl)-N-(6-bromo-3-((3,3-difluoroazetidin-1-yl)methyl)pyridin-2-yl)-5-methyl-2-azabicyclo[3.1.0]hexane-3-carboxamide]	< 1000
CC(=O)c1nn(CC(=O)N2[C@H](C(=O)Nc3nc(Br)c(F)cc3C)C[C@@]3(C)C[C@@H]23)c2ccc(-c3cnc(C)nc3)cc12 [Compound 178, (1R,3S,5R)-2-(2-(3-Acetyl-5-(2-methylpyrimidin-5-yl)-1H-indazol-1-yl)acetyl)-N-(6-bromo-5-fluoro-3-methylpyridin-2-yl)-5-methyl-2-azabicyclo[3.1.0]hexane-3-carboxamide]	< 1000
CC(=O)c1nn(CC(=O)N2[C@H](C(=O)Nc3nc(Br)ccc3C)C[C@@]3(C)C[C@@H]23)c2ccc(-c3cnc4cc(C)nn4c3)cc12 [Compound 180, (1R,3S,5R)-2-(2-(3-Acetyl-5-(2-methylpyrazolo[1,5-a]pyrimidin-6-yl)-1H-indazol-1-yl)acetyl)-N-(6-bromo-3-methylpyridin-2-yl)-5-methyl-2-azabicyclo[3.1.0]hexane-3-carboxamide]	< 1000
CC(=O)c1nn(CC(=O)N2[C@H](C(=O)Nc3nc(Br)c(F)cc3C)C[C@@]3(C)C[C@@H]23)c2ncc(-c3cnc(C)nc3)cc12 [Compound 182, (1R,3S,5R)-2-(2-(3-Acetyl-5-(2-methylpyrimidin-5-yl)-1H-pyrazolo[3,4-b]pyridin-1-yl)acetyl)-N-(6-bromo-5-fluoro-3-methylpyridin-2-yl)-5-methyl-2-azabicyclo[3.1.0]hexane-3-carboxamide]	< 1000
CC(=O)c1nn(CC(=O)N2C[C@H]3C[C@H]3[C@H]2C(=O)Nc2nc(Br)ccc2C)c2ncc(-c3cnc(C)nc3)cc12 [Compound 183, (1R,2S,5S)-3-(2-(3-Acetyl-5-(2-methylpyrimidin-5-yl)-1H-pyrazolo[3,4-b]pyridin-1-yl)acetyl)-N-(6-bromo-3-methylpyridin-2-yl)-3-azabicyclo[3.1.0]hexane-2-carboxamide]	< 1000
CC(=O)c1nn(CC(=O)N2[C@H](C(=O)Nc3nc(Br)ccc3C)C[C@@]3(C)C[C@@H]23)c2ccc(-c3cnc(C)nc3)nc12 [Compound 184, (1R,3S,5R)-2-(2-(3-Acetyl-5-(2-methylpyrimidin-5-yl)-1H-pyrazolo[4,3-b]pyridin-1-yl)acetyl)-N-(6-bromo-3-methylpyridin-2-yl)-5-methyl-2-azabicyclo[3.1.0]hexane-3-carboxamide]	1000 to 10000
CC(=O)c1nn(CC(=O)N2[C@H](C(=O)Nc3nc(Br)c(F)cc3C)C[C@@]3(C)C[C@@H]23)c2ccc(-c3cnc(C)nc3)nc12 [Compound 185, (1R,3S,5R)-2-(2-(3-Acetyl-5-(2-methylpyrimidin-5-yl)-1H-pyrazolo[4,3-b]pyridin-1-yl)acetyl)-N-(6-bromo-5-fluoro-3-methylpyridin-2-yl)-5-methyl-2-azabicyclo[3.1.0]hexane-3-carboxamide]	1000 to 10000
CC(=O)c1nn(CC(=O)N2[C@H](C(=O)Nc3nc(Br)cc(C)c3C(F)F)C[C@@]3(C)C[C@@H]23)c2ccc(-c3cnc(C)nc3)cc12 [Compound 187, (1R,3S,5R)-2-(2-(3-Acetyl-5-(2-methylpyrimidin-5-yl)-1H-indazol-1-yl)acetyl)-N-(6-bromo-3-(difluoromethyl)-4-methylpyridin-2-yl)-5-methyl-2-azabicyclo[3.1.0]hexane-3-carboxamide]	< 1000
C=CCCS(=O)(=O)N(C)C[C@@]12C[C@@H](C(=O)Nc3nc(Br)ccc3C=C)N(C(=O)Cn3nc(C(C)=O)c4cc(-c5cnc(C)nc5)ccc43)[C@@H]1C2 [Compound 188, (1R,3S,5R)-2-(2-(3-Acetyl-5-(2-methylpyrimidin-5-yl)-1H-indazol-1-yl)acetyl)-N-(6-bromo-3-vinylpyridin-2-yl)-5-((N-methylbut-3-en-1-ylsulfonamido)methyl)-2-azabicyclo[3.1.0]hexane-3-carboxamide]	< 1000
CC(=O)c1nn(CC(=O)N2[C@H](C(=O)Nc3nc(Br)ccc3CN3CCOCC3)C[C@@]3(C)C[C@@H]23)c2cnc(-c3cnc(C)nc3)cc12 [Compound 192, (1R,3S,5R)-2-(2-(3-Acetyl-5-(2-methylpyrimidin-5-yl)-1H-pyrazolo[3,4-c]pyridin-1-yl)acetyl)-N-(6-bromo-3-(morpholinomethyl)pyridin-2-yl)-5-methyl-2-azabicyclo[3.1.0]hexane-3-carboxamide]	< 1000
COc1ncc(-c2cc3c(C(C)=O)nn(CC(=O)N4[C@H](C(=O)Nc5nc(Br)ccc5C)C[C@@]5(C)C[C@@H]45)c3cn2)cn1 [Compound 193, (1R,3S,5R)-2-(2-(3-Acetyl-5-(2-methoxypyrimidin-5-yl)-1H-pyrazolo[3,4-c]pyridin-1-yl)acetyl)-N-(6-bromo-3-methylpyridin-2-yl)-5-methyl-2-azabicyclo[3.1.0]hexane-3-carboxamide]	< 1000
CC(=O)c1nn(CC(=O)N2[C@H](C(=O)Nc3nc(Br)ccc3C)C[C@@]3(C)C[C@@H]23)c2cnc(-c3cnc(N)nc3)cc12 [Compound 194, (1R,3S,5R)-2-(2-(3-Acetyl-5-(2-aminopyrimidin-5-yl)-1H-pyrazolo[3,4-c]pyridin-1-yl)acetyl)-N-(6-bromo-3-methylpyridin-2-yl)-5-methyl-2-azabicyclo[3.1.0]hexane-3-carboxamide]	< 1000
CC(=O)c1nn(CC(=O)N2[C@H](C(=O)Nc3nc(Br)c(F)cc3C)C[C@@]3(C)C[C@@H]23)c2cnc(-c3cnc(N)nc3)cc12 [Compound 195, (1R,3S,5R)-2-(2-(3-Acetyl-5-(2-aminopyrimidin-5-yl)-1H-pyrazolo[3,4-c]pyridin-1-yl)acetyl)-N-(6-bromo-5-fluoro-3-methylpyridin-2-yl)-5-methyl-2-azabicyclo[3.1.0]hexane-3-carboxamide]	< 1000
CC(=O)c1nn(CC(=O)N2[C@H](C(=O)Nc3nc(OC(F)(F)F)ccc3C)C[C@@]3(C)C[C@@H]23)c2ccc(-c3cnc(C)nc3)cc12 [Compound 196, (1R,3S,5R)-2-(2-(3-Acetyl-5-(2-methylpyrimidin-5-yl)-1H-indazol-1-yl)acetyl)-5-methyl-N-(3-methyl-6-(trifluoromethoxy)pyridin-2-yl)-2-azabicyclo[3.1.0]hexane-3-carboxamide]	< 1000
CC(=O)c1nn(CC(=O)N2[C@H](C(=O)Nc3nc(Br)ccc3C)C[C@@]3(c4cnco4)C[C@@H]23)c2ccc(-c3cnc(C)nc3)cc12 [Compound 197, (1R,3S,5S)-2-(2-(3-Acetyl-5-(2-methylpyrimidin-5-yl)-1H-indazol-1-yl)acetyl)-N-(6-bromo-3-methylpyridin-2-yl)-5-(oxazol-5-yl)-2-azabicyclo[3.1.0]hexane-3-carboxamide]	< 1000
